Laboratory results from US20200164006A1, “METHODS AND COMPOSITIONS OF INCORPORATING A BIOACTIVE AGENT AND USE THEREOF” (INNOVANUTRA INC., priority 2017, published 2020).

Experiments:
[1] = pH stability for quercetin in yeast, in L. casei and unincorporated quercetin; type: physicochemical; details: pH 3, 4, 5, 6 over time; extraction at every time point
Description: A comparative pH test at different pH's (3, 4, 5, 6) was done with quercetin incorporated in yeast, in L. casei and un-incorporated quercetin. At every time point, an extraction was done to spectrophotometrically determine the amount of quercetin retained. […] The percent retention is calculated by dividing the absorbance value at each time point with the absorbance value at the initial t=0.

[2] = Incorporation of quercetin in microbial carriers, extraction and absorbance at 388 nm (incorporation yield and efficiency); type: physicochemical; details: cell incorporation process
Description: The phrases “loading efficiency” or “incorporation efficiency” interchangeably refer to the incorporation efficiency on both wet basis determined as follows: IE(%)=CE/CT×100, where CE is the mass of extracted bioactive from the lipid membrane microcapsules after incorporation on a wet basis and CT is the amount of bioactive initially added to the lipid membrane microcapsules. A standard calibration curve was spectrophotometrically obtained for quercetin (QU995 is the food-grade form of quercetin) in dimethyl sulfoxide (DMSO). Incorporation of quercetin in yeast cells with ethanol-buffer mixture was achieved by a non-thermal, vacuum infusion method. Inactivated food-grade yeast cells were used to incorporate quercetin with an initial aim of achieving an incorporation yield or loading percent of 0.5%. The dry yeast cells were first washed with deionized water and an ethanol solution. The washed cells were weighed for use as control (without quercetin) and sample (with quercetin). The incorporation was done in high vacuum conditions and the control and sample were incubated in the dark. […] A 500 μL of supernatant was removed and measured absorbance at 388 nm. […] The problem encountered in a quadruple infusion was crystallization of quercetin around carriers, instead of being incorporated (determined by a multiphoton fluorescence imaging). […]

O=c1c(O)c(-c2ccc(O)c(O)c2)oc2cc(O)cc(O)c12 [quercetin]
pH stability (amount of quercetin retained) [1]: rapid degradation over time
amount of quercetin that can efficiently incorporate into the cells [2]: 12.517 mg/g
